Assay results published in patent US20260137703A1, “2-AMINO-PYRIDO[2,3-D]PYRIMIDIN-7(8H)-ONE AND 7-AMINO-1-PYRIMIDO[4,5-D]PYRIMIDIN-2(1 H)-ONE DERIVATIVES AS EGFR INHIBITORS FOR THE TREATMENT OF CANCER” (Cancer Research Technology Limited, priority 2022, published 2026).

These compounds were tested against CtermHisTag-mEGFR Wild type (Homo sapiens, UniProt P00533) (assay: biochemical).
Chain of CtermHisTag-mEGFR Wild type (P00533 whole entry): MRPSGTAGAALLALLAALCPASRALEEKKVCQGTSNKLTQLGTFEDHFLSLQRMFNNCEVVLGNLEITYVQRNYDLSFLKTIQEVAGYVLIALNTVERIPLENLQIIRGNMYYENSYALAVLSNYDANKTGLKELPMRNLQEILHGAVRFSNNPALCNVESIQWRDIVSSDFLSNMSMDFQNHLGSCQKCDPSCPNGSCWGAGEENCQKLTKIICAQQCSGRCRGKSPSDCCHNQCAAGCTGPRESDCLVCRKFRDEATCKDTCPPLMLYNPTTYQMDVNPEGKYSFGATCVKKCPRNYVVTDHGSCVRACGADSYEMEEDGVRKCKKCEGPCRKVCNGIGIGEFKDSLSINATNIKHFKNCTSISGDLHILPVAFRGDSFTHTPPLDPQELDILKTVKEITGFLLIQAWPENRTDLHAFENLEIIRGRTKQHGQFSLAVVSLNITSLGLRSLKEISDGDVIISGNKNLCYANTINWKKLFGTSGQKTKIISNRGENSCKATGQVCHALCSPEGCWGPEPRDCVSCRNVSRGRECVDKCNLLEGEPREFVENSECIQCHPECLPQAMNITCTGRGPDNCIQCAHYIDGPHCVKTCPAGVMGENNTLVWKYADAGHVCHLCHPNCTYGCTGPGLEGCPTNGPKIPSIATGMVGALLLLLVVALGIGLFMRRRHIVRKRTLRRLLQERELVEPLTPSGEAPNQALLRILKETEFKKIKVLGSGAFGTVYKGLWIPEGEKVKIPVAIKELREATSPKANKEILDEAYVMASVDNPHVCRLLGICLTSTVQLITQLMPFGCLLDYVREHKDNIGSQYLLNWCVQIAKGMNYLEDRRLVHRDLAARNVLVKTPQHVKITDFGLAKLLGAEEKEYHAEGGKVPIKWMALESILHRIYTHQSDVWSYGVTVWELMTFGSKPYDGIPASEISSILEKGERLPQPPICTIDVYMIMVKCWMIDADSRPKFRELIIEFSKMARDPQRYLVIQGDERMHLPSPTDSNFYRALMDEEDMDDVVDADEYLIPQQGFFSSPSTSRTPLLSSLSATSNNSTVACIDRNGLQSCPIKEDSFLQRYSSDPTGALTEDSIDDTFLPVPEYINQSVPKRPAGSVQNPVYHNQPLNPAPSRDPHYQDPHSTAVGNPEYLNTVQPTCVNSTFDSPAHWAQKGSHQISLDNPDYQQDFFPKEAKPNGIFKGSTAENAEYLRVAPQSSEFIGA

Row | SMILES | IC50
1 | C=CC(=O)Nc1cc(=O)n(-c2ccccc2)c2nc(Nc3ccccc3OC)ncc12 [Example 2, N-(2-((2-Methoxyphenyl)amino)-7-oxo-8-phenyl-7,8-dihydropyrido[2,3-d]pyrimidin-5-yl)acrylamide] | > 10 µM
2 | C#Cc1nc(=O)n(-c2ccccc2)c2nc(Nc3ccccc3OC)ncc12 [Example 4, 4-Ethynyl-7-[(2-methoxyphenyl)amino]-1-phenylpyrimido[4,5-d][1,3]diazin-2-one] | < 1 µM
3 | C#Cc1cc(=O)n(-c2ccccc2)c2nc(Nc3ccccc3)ncc12 [Example 5] | 1 to 10 µM
4 | C#Cc1cc(=O)n(-c2ccccc2)c2nc(Nc3ccc(OCCN(C)C)cc3)ncc12 [Example 13, 2-({4-[2-(Dimethylamino)ethoxy]phenyl}amino)-5-ethynyl-8-phenylpyrido[2,3-d]pyrimidin-7-one] | < 1 µM
5 | C#Cc1cc(=O)n(-c2ccccc2)c2nc(Nc3ccc(N4CCOCC4)cc3OC)ncc12 [Example 35, 5-Ethynyl-2-((2-methoxy-4-morpholinophenyl)amino)-8-phenylpyrido[2,3-d]pyrimidin-7(8H)-one] | < 1 µM
6 | C#Cc1cc(=O)n(-c2ccccc2)c2nc(Nc3ccccc3CO)ncc12 [Example 41, 5-Ethynyl-2-{[2-(hydroxymethyl)phenyl]amino}-8-phenylpyrido[2,3-d]pyrimidin-7-one] | > 10 µM
7 | C#Cc1cc(=O)n(C)c2nc(Nc3ccc(N(C)CCN(C)C)cc3OC)ncc12 [Example 42, 2-[(4-{[2-(Dimethylamino)ethyl](methyl)amino}-2-methoxyphenyl)amino]-5-ethynyl-8-methylpyrido[2,3-d]pyrimidin-7-one] | 1 to 10 µM
8 | C#Cc1cc(=O)n(C)c2nc(Nc3ccccc3OC)ncc12 [Example 48, 5-Ethynyl-2-[(2-methoxyphenyl)amino]-8-methylpyrido[2,3-d]pyrimidin-7-one] | > 10 µM
9 | C#Cc1cc(=O)n(-c2cccc(NC(C)=O)c2)c2nc(Nc3ccccc3OC)ncc12 [Example 56, N-(3-(5-Ethynyl-2-((2-methoxyphenyl)amino)-7-oxopyrido[2,3-d]pyrimidin-8(7H)-yl)phenyl)acetamide] | > 10 µM
10 | C#Cc1cc(=O)n(-c2cccc(NS(C)(=O)=O)c2)c2nc(Nc3ccccc3OC)ncc12 [Example 57, N-(3-(5-Ethynyl-2-((2-methoxyphenyl)amino)-7-oxopyrido[2,3-d]pyrimidin-8(7H)-yl)phenyl)methanesulfonamide] | > 10 µM
11 | C#Cc1cc(=O)n(-c2cccc(NS(=O)(=O)C3CC3)c2)c2nc(Nc3ccccc3OC)ncc12 [Example 58, N-(3-(5-Ethynyl-2-((2-methoxyphenyl)amino)-7-oxopyrido[2,3-d]pyrimidin-8(7H)-yl)phenyl)cyclopropanesulfonamide] | > 10 µM
12 | C#Cc1cc(=O)n(C2CCCC2)c2nc(Nc3ccccc3OC)ncc12 [Example 74, 8-Cyclopentyl-5-ethynyl-2-((2-methoxyphenyl)amino)pyrido[2,3-d]pyrimidin-7(8H)-one] | > 10 µM
13 | C#Cc1cc(=O)n(-c2ccc(OC)cc2OC)c2nc(Nc3ccccc3OC)ncc12 [Example 75, 8-(2,4-Dimethoxyphenyl)-5-ethynyl-2-[(2-methoxyphenyl)amino]pyrido[2,3-d]pyrimidin-7-one] | > 10 µM
14 | C#Cc1cc(=O)n(C(C)C)c2nc(Nc3ccccc3OC)ncc12 [Example 83, 5-Ethynyl-8-isopropyl-2-[(2-methoxyphenyl)amino]pyrido[2,3-d]pyrimidin-7-one] | > 10 µM
15 | C#Cc1cc(=O)n(-c2ccc(OC)cc2)c2nc(Nc3ccccc3OC)ncc12 [Example 84, 5-ethynyl-8-(4-methoxyphenyl)-2-[(2-methoxyphenyl)amino]pyrido[2,3-d]pyrimidin-7-one] | > 10 µM
16 | C#Cc1cc(=O)n(-c2cccc(NC(=O)C=C)c2)c2nc(Nc3ccccc3OC)ncc12 [Example 85, N-(3-(5-Ethynyl-2-((2-methoxyphenyl)amino)-7-oxopyrido[2,3-d]pyrimidin-8(7H)-yl)phenyl)acrylamide] | 1 to 10 µM
17 | C#Cc1c(-c2ccccc2)c(=O)n(C)c2nc(Nc3ccc(N(C)CCN(C)C)cc3OC)ncc12 [Example 121, 2-[(4-[[2-(dimethylamino)ethyl](methyl)amino]-2-methoxyphenyl)amino]-5-ethynyl-8-methyl-6-phenylpyrido[2,3-d]pyrimidin-7-one] | 1 to 10 µM
18 | C#Cc1c(-c2ccccc2Cl)c(=O)n(C)c2nc(Nc3ccc(N(C)CCN(C)C)cc3OC)ncc12 [Example 122, 6-(2-chlorophenyl)-2-[(4-[[2-(dimethylamino)ethyl](methyl)amino]-2-methoxyphenyl)amino]-5-ethynyl-8-methylpyrido[2,3-d]pyrimidin-7-one] | < 1 µM
19 | C#Cc1c(-c2ccccc2Cl)c(=O)n(C)c2nc(Nc3ccccc3OC)ncc12 [Example 123, 6-(2-chlorophenyl)-5-ethynyl-2-[(2-methoxyphenyl)amino]-8-methylpyrido[2,3-d]pyrimidin-7-one] | > 10 µM

Row | SMILES | IC50
20 | C#Cc1c(-c2ccccc2Cl)c(=O)n(C)c2nc(Nc3ccccc3)ncc12 [Example 124, 6-(2-chlorophenyl)-5-ethynyl-8-methyl-2-(phenylamino)pyrido[2,3-d]pyrimidin-7-one] | > 10 µM
21 | C#Cc1c(-c2ccccc2Cl)c(=O)n(C)c2nc(NCCCCN3CCN(C)CC3)ncc12 [Example 130, 6-(2-chlorophenyl)-5-ethynyl-8-methyl-2-{[4-(4-methylpiperazin-1-yl)butyl]amino}pyrido[2,3-d]pyrimidin-7-one] | > 10 µM
22 | C#Cc1c(-c2ccccc2Cl)c(=O)n(C)c2nc(Nc3ccc(N(C)CCN(C)C)c(C)c3)ncc12 [Example 133, 6-(2-chlorophenyl)-2-[(4-{[2-(dimethylamino)ethyl](methyl)amino}-3-methylphenyl)amino]-5-ethynyl-8-methylpyrido[2,3-d]pyrimidin-7-one] | < 1 µM
23 | C#Cc1c(-c2ccccc2OC)c(=O)n(C)c2nc(Nc3ccc(N(C)CCN(C)C)cc3)ncc12 [Example 138, 2-[(4-{[2-(dimethylamino)ethyl](methyl)amino}phenyl)amino]-5-ethynyl-6-(2-methoxyphenyl)-8-methylpyrido [2,3-d]pyrimidin-7-one] | 1 to 10 µM
24 | C#Cc1c(Cc2ccccc2)c(=O)n(C)c2nc(Nc3ccc(N(C)CCN(C)C)cc3OC)ncc12 [Example 140, 6-benzyl-2-[(4-[[2-(dimethylamino)ethyl](methyl)amino]-2-methoxyphenyl)amino]-5-ethynyl-8-methylpyrido[2,3-d]pyrimidin-7-one] | 1 to 10 µM
25 | C#Cc1c(C(=O)NC)c(=O)n(-c2ccccc2)c2nc(Nc3ccccc3OC)ncc12 [Example 141, 5-ethynyl-2-[(2-methoxyphenyl)amino]-N-methyl-7-oxo-8-phenylpyrido[2,3-d]pyrimidine-6-carboxamide] | > 10 µM
26 | C#Cc1c(N)c(=O)n(-c2ccccc2)c2nc(Nc3ccccc3OC)ncc12 [Example 142, 6-amino-5-ethynyl-2-[(2-methoxyphenyl)amino]-8-phenylpyrido[2,3-d]pyrimidin-7-one] | > 10 µM
27 | C#Cc1c(NC(C)=O)c(=O)n(-c2ccccc2)c2nc(Nc3ccccc3OC)ncc12 [Example 143, N-[5-ethynyl-2-[(2-methoxyphenyl)amino]-7-oxo-8-phenylpyrido[2,3-d]pyrimidin-6-yl]acetamide] | > 10 µM
28 | C#Cc1c(C#N)c(=O)n(-c2ccccc2)c2nc(Nc3ccccc3OC)ncc12 [Example 145, 5-ethynyl-2-[(2-methoxyphenyl)amino]-7-oxo-8-phenylpyrido[2,3-d]pyrimidine-6-carbonitrile] | > 10 µM
29 | C#Cc1c(C(=O)N(C)C)c(=O)n(-c2ccccc2)c2nc(Nc3ccccc3OC)ncc12 [Example 146, 5-ethynyl-2-[(2-methoxyphenyl)amino]-N,N-dimethyl-7-oxo-8-phenylpyrido[2,3-d]pyrimidine-6-carboxamide] | > 10 µM
30 | C#Cc1c(N(C)C)c(=O)n(-c2ccccc2)c2nc(Nc3ccccc3OC)ncc12 [Example 147, 6-(dimethylamino)-5-ethynyl-2-[(2-methoxyphenyl)amino]-8-phenylpyrido[2,3-d]pyrimidin-7-one] | > 10 µM
31 | C=Cc1cc(=O)n(-c2ccccc2)c2nc(Nc3ccccc3OC)ncc12 [Example 152, 5-ethenyl-2-[(2-methoxyphenyl)amino]-8-phenylpyrido[2,3-d]pyrimidin-7-one] | > 10 µM
32 | C=Cc1cc(=O)n(-c2ccccc2OC)c2nc(Nc3ccccc3OC)ncc12 [Example 153, 8-(2-Methoxyphenyl)-2-((2-methoxyphenyl)amino)-5-vinylpyrido[2,3-d]pyrimidin-7(8H)-one] | > 10 µM
33 | C=Cc1cc(=O)n(-c2ccc(OC)cc2OC)c2nc(Nc3ccccc3OC)ncc12 [Example 154, 8-(2,4-dimethoxyphenyl)-5-ethenyl-2-[(2-methoxyphenyl)amino]pyrido[2,3-d]pyrimidin-7-one] | > 10 µM
34 | C=Cc1c(C#N)c(=O)n(-c2ccccc2)c2nc(Nc3ccccc3OC)ncc12 [Example 159, 5-ethenyl-2-[(2-methoxyphenyl)amino]-7-oxo-8-phenylpyrido[2,3-d]pyrimidine-6-carbonitrile] | 1 to 10 µM
35 | C=Cc1c(C#N)c(=O)n(-c2ccc(OC)cc2OC)c2nc(Nc3ccccc3OC)ncc12 [Example 160, 8-(2,4-dimethoxyphenyl)-2-((2-methoxyphenyl)amino)-7-oxo-5-vinyl-7,8-dihydropyrido[2,3-d]pyrimidine-6-carbonitrile] | 1 to 10 µM
36 | C=Cc1c(-c2ccccc2Cl)c(=O)n(C)c2nc(Nc3ccccc3OC)ncc12 [Example 161, 6-(2-chlorophenyl)-5-ethenyl-2-[(2-methoxyphenyl)amino]-8-methylpyrido[2,3-d]pyrimidin-7-one] | > 10 µM
37 | C=Cc1c(-c2ccccc2)c(=O)n(C)c2nc(Nc3ccccc3OC)ncc12 [Example 162, 5-ethenyl-2-[(2-methoxyphenyl)amino]-8-methyl-6-phenylpyrido[2,3-d]pyrimidin-7-one] | > 10 µM
38 | C=Cc1c(-c2c(Cl)cccc2Cl)c(=O)n(C)c2nc(Nc3ccccc3OC)ncc12 [Example 163, 6-(2,6-dichlorophenyl)-5-ethenyl-2-[(2-methoxyphenyl)amino]-8-methylpyrido[2,3-]pyrimidin-7-one] | > 10 µM
